According to ChEMBL document CHEMBL1201862, “PubChem BioAssay data set” (2004):
Calls of active or inactive are those of the source.

Experiments:
[1] = insulin promoter down-regulators in MIN6 cells, imaging, high-content screening, mouse beta cells (AID 1628); assay type: functional
[2] = THP-1 cell cytotoxicity, dose response, cytotoxicity control for non-replicating M. tuberculosis project (AID 489025); assay type: functional
[3] = HepG2 cell cytotoxicity, dose response, cytotoxicity control for non-replicating M. tuberculosis project (AID 489018); assay type: functional; settings: Mycobacterium tuberculosis
[4] = NIH-3T3 fibroblast cytotoxicity, dose response, cytotoxicity control, cell-based, fluorescence, Alamar Blue, secondary assay (AID 2327); assay type: functional;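 note: NIH-3T3 mouse fibroblasts cultured with fluconazole at 8 µg/mL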
[5] = C. albicans growth with fluconazole, confirmation, fluorescence, retest (AID 2467); assay type: functional, cell-based
[6] = cytotoxicity in MIN6 insulinoma cells, dose response, cytotoxicity control, cell-based, mouse insulinoma (AID 2122); assay type: functional;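 note: confirmatory high-throughput counterscreen run to flag cytotoxic compounds; mouse MIN-6 beta cells carrying an insulin promoter eGFP reporter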
cells = assay type: functional
[7] = off-target signal loss in HeLa-CEM21 co-culture – HeLa F-luc CTL cells, cherry-picked, counter-screen for HIV-1 Env fusion inhibitor project, dose response (AID 652040); assay type: functional, cell-based;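 note: potency for signal decrease marking cytotoxic or nonspecific inhibition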
[8] = inhibitors of HIV Env-driven cell fusion, dose response, cherry-pick (AID 652057); assay type: functional, cell-based
[9] = CEM21 lymphoblast cell cytotoxicity, dose response, cytotoxicity control for viral fusion inhibitor project, CellTiter-Glo luminescence, cherry-picked (AID 652042); assay type: functional, cell-based;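 note: potency for signal decrease meaning cytotoxicity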
[10] = inhibitors of clade B AD8 Env fusion, dose response, cell-based, cherry-pick (AID 652062); assay type: functional;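 note: luciferase signal from cell-cell fusion driven by HIV-1 clade B AD8 Env; potency is for inhibitors of fusion seen as a drop in luminescence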
[11] = ZM109 Env clade C HIV-1 fusion inhibitors, dose response, HeLa effector, CEM target cells, luciferase, cherry-pick (AID 652058); assay type: functional, cell-based
[12] = target: T1, High affinity choline transporter 1 (Homo sapiens, UniProt Q9GZV3); assay: CHT inhibitors, dose response, cell-based, 5-point CRC, membrane potential dye (AID 504840); assay type: functional
T1 sequence (Q9GZV3 whole entry): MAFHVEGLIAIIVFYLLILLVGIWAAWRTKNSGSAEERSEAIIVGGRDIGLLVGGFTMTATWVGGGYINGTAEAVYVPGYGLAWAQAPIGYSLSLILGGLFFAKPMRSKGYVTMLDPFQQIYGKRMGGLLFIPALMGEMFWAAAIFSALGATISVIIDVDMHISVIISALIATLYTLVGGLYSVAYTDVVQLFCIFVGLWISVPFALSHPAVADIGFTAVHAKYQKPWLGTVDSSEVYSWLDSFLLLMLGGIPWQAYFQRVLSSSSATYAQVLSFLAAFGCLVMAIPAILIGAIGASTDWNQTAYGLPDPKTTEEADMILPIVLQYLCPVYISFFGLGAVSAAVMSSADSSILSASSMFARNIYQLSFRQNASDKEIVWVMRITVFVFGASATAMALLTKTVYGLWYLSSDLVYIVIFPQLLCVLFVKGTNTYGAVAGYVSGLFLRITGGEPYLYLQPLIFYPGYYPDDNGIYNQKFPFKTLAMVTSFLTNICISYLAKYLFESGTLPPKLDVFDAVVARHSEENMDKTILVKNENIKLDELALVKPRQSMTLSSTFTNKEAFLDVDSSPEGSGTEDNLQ

Exodeoxyribonuclease V = Exodeoxyribonuclease V (Escherichia coli (strain K12), UniProt P04993+P07648+P08394); assay: E. coli RecBCD inhibitors, dose response, counter-screen for AddAB inhibitor project, absorbance, V66 E. coli, mutant T4 phage (AID 492957); assay type: functional, cell-based, Escherichia coli str. K-12 substr. MG1655
Sequence of Exodeoxyribonuclease V (P04993 whole entry): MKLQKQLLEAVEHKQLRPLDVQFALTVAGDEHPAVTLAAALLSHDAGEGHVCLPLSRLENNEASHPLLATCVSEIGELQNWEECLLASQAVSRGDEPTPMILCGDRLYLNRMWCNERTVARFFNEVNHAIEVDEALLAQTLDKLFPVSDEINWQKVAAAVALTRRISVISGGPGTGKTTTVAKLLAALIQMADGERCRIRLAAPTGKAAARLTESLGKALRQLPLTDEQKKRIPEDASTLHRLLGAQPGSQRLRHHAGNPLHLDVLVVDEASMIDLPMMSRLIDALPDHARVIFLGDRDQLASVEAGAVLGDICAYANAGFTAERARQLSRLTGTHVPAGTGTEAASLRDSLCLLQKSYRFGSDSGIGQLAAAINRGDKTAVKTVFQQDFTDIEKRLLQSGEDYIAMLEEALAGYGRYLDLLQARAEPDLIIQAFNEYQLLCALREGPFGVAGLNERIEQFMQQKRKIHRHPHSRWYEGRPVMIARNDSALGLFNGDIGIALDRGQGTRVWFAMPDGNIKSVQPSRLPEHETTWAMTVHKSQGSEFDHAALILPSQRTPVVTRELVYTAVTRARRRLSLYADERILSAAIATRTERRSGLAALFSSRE
Sequence of Exodeoxyribonuclease V (P07648 whole entry): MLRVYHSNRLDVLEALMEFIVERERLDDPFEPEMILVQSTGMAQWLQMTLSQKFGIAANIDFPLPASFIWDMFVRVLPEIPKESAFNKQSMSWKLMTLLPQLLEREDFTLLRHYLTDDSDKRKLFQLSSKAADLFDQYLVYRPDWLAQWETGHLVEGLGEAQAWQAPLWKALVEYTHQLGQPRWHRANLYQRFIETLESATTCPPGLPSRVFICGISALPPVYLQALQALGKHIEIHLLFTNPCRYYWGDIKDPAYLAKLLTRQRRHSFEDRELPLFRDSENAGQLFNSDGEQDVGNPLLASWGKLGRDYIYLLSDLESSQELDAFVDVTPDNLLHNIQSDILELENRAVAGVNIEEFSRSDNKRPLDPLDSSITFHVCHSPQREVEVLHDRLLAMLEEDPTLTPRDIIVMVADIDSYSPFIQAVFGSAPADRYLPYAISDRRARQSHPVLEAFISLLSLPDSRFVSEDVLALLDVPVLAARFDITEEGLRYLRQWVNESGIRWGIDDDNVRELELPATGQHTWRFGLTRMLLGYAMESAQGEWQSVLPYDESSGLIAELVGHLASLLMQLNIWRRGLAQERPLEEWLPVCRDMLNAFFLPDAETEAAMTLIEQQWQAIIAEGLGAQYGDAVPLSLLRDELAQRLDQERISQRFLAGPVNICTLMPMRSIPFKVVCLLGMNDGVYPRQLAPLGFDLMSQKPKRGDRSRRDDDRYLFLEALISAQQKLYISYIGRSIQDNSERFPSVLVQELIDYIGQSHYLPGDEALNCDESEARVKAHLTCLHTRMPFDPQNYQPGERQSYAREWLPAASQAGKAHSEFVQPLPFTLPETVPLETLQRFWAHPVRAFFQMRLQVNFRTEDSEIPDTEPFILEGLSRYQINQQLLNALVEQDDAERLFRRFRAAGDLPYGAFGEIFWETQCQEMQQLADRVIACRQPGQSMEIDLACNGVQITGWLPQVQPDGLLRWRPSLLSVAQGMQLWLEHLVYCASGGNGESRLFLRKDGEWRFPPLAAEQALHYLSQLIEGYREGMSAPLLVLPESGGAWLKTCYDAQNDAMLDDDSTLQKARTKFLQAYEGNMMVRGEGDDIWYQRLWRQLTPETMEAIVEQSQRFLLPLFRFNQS
Sequence of Exodeoxyribonuclease V (P08394 whole entry): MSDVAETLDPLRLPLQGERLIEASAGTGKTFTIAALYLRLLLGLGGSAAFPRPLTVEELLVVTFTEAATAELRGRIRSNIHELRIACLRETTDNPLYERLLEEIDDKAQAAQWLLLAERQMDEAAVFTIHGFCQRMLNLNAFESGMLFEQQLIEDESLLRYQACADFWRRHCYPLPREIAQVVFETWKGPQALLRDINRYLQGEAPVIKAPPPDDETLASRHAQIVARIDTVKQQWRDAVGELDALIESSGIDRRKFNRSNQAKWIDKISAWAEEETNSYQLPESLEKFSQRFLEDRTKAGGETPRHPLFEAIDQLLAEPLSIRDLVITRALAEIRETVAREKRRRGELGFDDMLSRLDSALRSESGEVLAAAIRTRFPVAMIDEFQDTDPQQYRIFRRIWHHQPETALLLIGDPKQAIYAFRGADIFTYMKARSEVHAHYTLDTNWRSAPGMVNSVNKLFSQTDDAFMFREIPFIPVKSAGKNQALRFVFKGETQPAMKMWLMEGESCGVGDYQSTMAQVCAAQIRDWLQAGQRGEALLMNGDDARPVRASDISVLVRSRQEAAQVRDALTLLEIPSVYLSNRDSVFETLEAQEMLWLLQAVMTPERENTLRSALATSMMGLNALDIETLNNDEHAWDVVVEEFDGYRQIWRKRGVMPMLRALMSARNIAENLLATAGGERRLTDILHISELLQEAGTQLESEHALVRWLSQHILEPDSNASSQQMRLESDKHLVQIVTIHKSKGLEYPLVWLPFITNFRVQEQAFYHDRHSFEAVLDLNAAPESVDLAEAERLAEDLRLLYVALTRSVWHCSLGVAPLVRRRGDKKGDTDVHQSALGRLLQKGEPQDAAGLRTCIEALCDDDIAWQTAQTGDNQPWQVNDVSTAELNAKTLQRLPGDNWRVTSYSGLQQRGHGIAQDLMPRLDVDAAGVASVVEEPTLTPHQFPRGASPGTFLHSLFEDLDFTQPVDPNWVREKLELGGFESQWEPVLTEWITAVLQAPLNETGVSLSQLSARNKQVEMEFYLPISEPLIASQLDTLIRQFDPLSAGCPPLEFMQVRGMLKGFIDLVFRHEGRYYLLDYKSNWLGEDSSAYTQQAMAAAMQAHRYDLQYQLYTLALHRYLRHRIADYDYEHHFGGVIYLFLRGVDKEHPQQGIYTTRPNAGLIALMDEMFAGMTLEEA

[13] = Counterscreen for AddAB inhibitors: absorbance-based bacterial cell-based high throughput dose response assay for inhibitors of bacterial viability. [Related pubchem assays (depositor defined):AID435030, AID449728, AID449731, AID488942, AID488955, AID488956]; assay type: functional
CAAX prenyl protease 1 = CAAX prenyl protease 1 (Saccharomyces cerevisiae S288c, UniProt P47154); assay: Ste24 protease inhibitors, dose response, biochemical, S. cerevisiae, plate reader, cherry-pick (AID 488815)
Sequence of CAAX prenyl protease 1 (P47154 whole entry): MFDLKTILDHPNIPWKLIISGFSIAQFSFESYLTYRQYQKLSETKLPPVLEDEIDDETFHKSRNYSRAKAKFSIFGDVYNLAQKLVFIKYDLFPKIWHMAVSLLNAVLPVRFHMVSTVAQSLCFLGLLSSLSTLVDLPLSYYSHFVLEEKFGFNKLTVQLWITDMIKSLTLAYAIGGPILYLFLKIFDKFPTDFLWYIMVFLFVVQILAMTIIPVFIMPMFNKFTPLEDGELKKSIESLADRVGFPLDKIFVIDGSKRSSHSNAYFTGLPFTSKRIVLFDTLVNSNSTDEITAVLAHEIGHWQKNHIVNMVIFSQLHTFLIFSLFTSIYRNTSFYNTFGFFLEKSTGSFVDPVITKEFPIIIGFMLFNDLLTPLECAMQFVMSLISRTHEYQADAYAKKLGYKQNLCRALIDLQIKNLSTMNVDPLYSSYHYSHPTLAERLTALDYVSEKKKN

Trypsin = Trypsin (Sus scrofa, UniProt P00761); assay: porcine trypsin inhibitors, dose response, selectivity assay for Rce1 protease inhibitor project, biochemical, quenched peptide fluorescence, cherry-pick (AID 488789)
Cytochrome P450 2D6 = Cytochrome P450 2D6 (Homo sapiens, UniProt P10635);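 note: CYP2D6 member of a cytochrome P450 panel assay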
Sequence of Cytochrome P450 2D6 (P10635 whole entry): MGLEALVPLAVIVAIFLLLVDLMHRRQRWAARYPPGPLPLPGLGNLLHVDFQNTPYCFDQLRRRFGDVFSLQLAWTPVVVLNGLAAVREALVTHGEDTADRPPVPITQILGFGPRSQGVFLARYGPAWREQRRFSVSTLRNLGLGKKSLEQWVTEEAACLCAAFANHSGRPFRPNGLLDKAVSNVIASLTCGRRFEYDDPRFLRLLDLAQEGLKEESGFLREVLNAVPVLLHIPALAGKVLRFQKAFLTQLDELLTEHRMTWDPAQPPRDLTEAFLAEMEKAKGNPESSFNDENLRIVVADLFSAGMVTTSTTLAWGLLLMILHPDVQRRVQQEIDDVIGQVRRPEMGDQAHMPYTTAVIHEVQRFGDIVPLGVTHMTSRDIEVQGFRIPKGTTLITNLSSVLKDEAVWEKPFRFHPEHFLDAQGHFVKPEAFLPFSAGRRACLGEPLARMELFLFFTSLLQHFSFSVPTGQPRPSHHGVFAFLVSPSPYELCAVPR

Cytochrome P450 1A2 = target: T2, Cytochrome P450 1A2 (Homo sapiens, UniProt P05177);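 note: PubChem cytochrome P450 panel assay, CYP1A2 panel member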
T2 sequence (P05177 whole entry): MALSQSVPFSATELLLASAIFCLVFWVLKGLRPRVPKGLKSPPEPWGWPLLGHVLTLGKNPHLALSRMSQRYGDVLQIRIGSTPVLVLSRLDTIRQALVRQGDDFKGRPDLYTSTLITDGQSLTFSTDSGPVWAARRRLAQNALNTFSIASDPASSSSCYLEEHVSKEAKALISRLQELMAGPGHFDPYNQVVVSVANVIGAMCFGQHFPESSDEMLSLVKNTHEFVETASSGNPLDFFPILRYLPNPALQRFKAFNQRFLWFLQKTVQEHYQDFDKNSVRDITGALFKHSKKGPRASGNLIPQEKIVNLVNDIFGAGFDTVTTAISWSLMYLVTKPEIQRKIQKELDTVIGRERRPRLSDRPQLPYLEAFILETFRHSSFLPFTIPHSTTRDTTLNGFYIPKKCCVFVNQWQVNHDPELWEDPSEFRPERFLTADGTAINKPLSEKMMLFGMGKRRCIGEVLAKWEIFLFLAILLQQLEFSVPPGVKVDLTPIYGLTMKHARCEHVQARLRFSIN

Cytochrome P450 2C9 = Cytochrome P450 2C9 (Homo sapiens, UniProt P11712)
Cytochrome P450 3A4 = Cytochrome P450 3A4 (Homo sapiens, UniProt P08684);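 note: CYP3A4 tested as one member of a cytochrome P450 panel screen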
Sequence of Cytochrome P450 3A4 (P08684 whole entry): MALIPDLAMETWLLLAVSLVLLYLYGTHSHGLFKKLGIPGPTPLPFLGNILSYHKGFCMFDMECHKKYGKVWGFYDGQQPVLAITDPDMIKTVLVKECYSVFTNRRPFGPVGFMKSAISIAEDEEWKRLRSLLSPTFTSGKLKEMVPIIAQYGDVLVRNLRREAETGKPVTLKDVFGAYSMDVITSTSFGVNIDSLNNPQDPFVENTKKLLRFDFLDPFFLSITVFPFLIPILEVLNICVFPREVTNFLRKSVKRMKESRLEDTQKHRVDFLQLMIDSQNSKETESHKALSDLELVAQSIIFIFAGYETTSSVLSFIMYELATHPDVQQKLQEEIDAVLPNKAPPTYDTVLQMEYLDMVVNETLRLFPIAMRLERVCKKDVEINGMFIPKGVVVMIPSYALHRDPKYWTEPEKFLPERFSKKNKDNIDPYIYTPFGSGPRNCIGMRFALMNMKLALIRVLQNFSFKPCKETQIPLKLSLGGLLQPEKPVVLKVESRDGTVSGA

Cytochrome P450 2C19 = Cytochrome P450 2C19 (Homo sapiens, UniProt P33261); assay: Cytochrome panel assay with activity outcomes. Panel member name: p450-cyp2c19 Compounds with AC50 equal or less than 10 uM are considered active; assay type: functional
Sequence of Cytochrome P450 2C19 (P33261 whole entry): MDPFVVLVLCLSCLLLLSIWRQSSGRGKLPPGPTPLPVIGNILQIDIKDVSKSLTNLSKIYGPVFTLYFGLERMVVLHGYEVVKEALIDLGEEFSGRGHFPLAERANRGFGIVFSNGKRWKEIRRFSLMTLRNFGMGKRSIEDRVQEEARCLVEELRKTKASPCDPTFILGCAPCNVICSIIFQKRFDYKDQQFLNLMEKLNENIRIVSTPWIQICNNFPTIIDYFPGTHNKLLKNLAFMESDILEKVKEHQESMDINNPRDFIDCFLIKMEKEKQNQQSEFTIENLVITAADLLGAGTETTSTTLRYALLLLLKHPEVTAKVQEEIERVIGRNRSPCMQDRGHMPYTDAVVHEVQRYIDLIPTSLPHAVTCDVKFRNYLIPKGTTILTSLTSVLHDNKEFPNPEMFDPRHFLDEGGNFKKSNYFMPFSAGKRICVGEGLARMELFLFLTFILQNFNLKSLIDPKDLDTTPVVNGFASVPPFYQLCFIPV

In the case of `CC(C)[C@@H]1CC[C@@H](C)C[C@H]1OC(=O)C[n+]1cc(-c2ccc(Cl)cc2)n2c1CCCCC2`, the IC50 [1] is reported as 1.14 µM (active), the CC50 [2] is reported as 4.52 µM (active) and the CC50 [3] is reported as > 20 µM (active). The EC50 [4] was 23.8 µM (inconclusive), the EC50 [5] was 0.225 µM (active) and the IC50 [6] was 1.16 µM (active). The IC50 (cells) was 6.86 µM (active), the AC50 [7] was 37 µM (active) and the AC50 [8] was 16.3 µM (active). The AC50 [9] was 8.93 µM (active), the AC50 [10] was 9.97 µM (active) and the AC50 [11] was 8.56 µM (active).

In the case of `Fc1ccc(Nc2nnc(C(F)(F)F)s2)cc1Cl`, the IC50 [12] is reported as 11 µM (active), the IC50 (Exodeoxyribonuclease V) is reported as > 39.5 µM (inactive) and the IC50 [13] is reported as 96.8 µM (inactive).

For `CCN(CC)CCCNC(=O)CCc1c(C)n(CC)c2cc(-c3ccccc3OC)nn2c1=O`, the AC50 (CAAX prenyl protease 1) was 6.24 µM (active) and the AC50 (Trypsin) was 13.1 µM (active).

With `FC(F)(F)c1cc(CN2CC[C@@]3(CCCNC3)C2)cc(C(F)(F)F)c1` the AC50 (Cytochrome P450 2D6) was “inconclusive”, the AC50 (Cytochrome P450 1A2) was “inconclusive” and the AC50 (Cytochrome P450 2C9) was “inconclusive”. For the same compound, the AC50 (Cytochrome P450 3A4) was 3.98 µM (inconclusive) and the AC50 (Cytochrome P450 2C19) was “inconclusive”.
